Assay results published in patent US8648074B2, “Substituted octahydropyrrolo[1,2-a]pyrazine sulfonamides as calcium channel blockers” (AbbVie Inc., priority 2011, dated 2014).

System: Chronic constriction injury (CCl), a model of neuropathic pain
Assay: In vivo assessment of analgesic effect against neuropathic pain (Bennett model, chronic constriction injury; tactile allodynia by von Frey filaments)
Settings: Rattus norvegicus, po, 1 h; male Sprague Dawley rats, CCI; 10 mg/kg orally; mechanical allodynia 60 minutes following administration; percentage of maximum possible effect from log g PWT; read-out: % MPE
Procedure: Animals were prepared for testing, by use of a surgical procedure that induces neuropathic pain in one paw. IACUC guidelines for rodent survival surgery were followed. All surgical procedures were conducted on a clean, uncluttered surgical station. The area was wiped with a 70% ethanol solution before and after use. All instruments were sterilized by either autoclave or chemical sterilant (such as 2% glutaraldehyde>10 hours). Surgeons wore sterile gloves (for the initial procedure), clean lab coat or scrubs, hairnet or cap, and a half-mask respirator (when not working under a hood). Surgeons thoroughly washed their hands prior to donning sterile gloves. Gloves were disinfected in-between animals by cleansing with povidone iodine, chlorhexidine or 70% alcohol for at least 30 seconds. If multiple surgeries were performed, the instruments were cleaned and sterilized between procedures with hot glass beads (>10 seconds). To prevent thermal or chemical burns, the instruments were cooled by rinsing in sterile saline before use. Male, Sprague Dawley® rats, 175-200 g were used for surgeries. To minimize post-operative dehydration/maintain blood volume during the surgery, warmed sterile saline or Lactate Ringers solution at 10-15 mL/kg was administered subcutaneously immediately before or after surgery. This facilitated better renal function and presumably anesthesia product excretion post surgery. For all surgical procedures, anesthesia was induced with 4-5% isoflurane. Anesthesia was maintained during surgery with 1-3% isoflurane. Following induction, the surgical site was carefully shaved and the exposed area was aseptically prepared with povidone-iodine scrub solution and 70% ethanol 2-3 times. Chronic constriction injury (CCl), a model of neuropathic pain, was produced by following the method of Bennett and Xie (Bennett, G, et al. Pain, 1988, 33, 87-107). After site sterilization and anesthetic procedures outline above were completed, a 1.5 cm incision was made at the mid-thigh level to expose the biceps femoris and gluteous superficialis (right side), which were then separated by blunt dissection. The common sciatic nerve was exposed, isolated, and loosely ligated by four 5-0 chromic gut ligatures with <1 mm spacing between each. The surgical site was closed in layers—muscle was closed with 6.0 absorbable sutures, and the skin closed with wound clips. Animals were allowed to recover on a warming plate and were returned to their home cages when fully ambulatory. Animals were not be used for testing until at least 10 days following surgery. To measure mechanical sensitivity, tactile allodynia was measured using calibrated von Frey filaments (Stoelting, Wood Dale, Ill.) as described by Chaplan et al. (Chaplan S., et al. J of Neuroscience Methods 1994, 53, 55-63). Filament strengths used were: 0.4, 0.6, 1.0, 2, 4, 6, 8, and 15 g. Rats were placed into inverted individual plastic containers (20×12.5×20 cm) on top of a suspended wire mesh grid, and acclimated to the test chambers for at least 20 minutes. Filaments were applied perpendicular to the mid-plantar paw surface with enough force to cause slight buckling and held in place for 6-8 seconds. Positive responses included an abrupt withdrawal of the paw from the stimulus or flinching behavior immediately following removal of the stimulus. The maximum force applied was 15 g. The 50% paw withdrawal threshold (PWT) was calculated in grams (g) using the up-down method of Dixon (Dixon W. Ann Rev Pharmacol Toxicol 1980, 20, 441-462). […] All compounds were orally administered in at a dose of 10 mg/kg in 10% dimethyl sulfoxide/polyethylene glycol at a volume of 2.0 mL/kg, and mechanical allodynia was determined 60 minutes following compound administration. […]

Point of comparison: `O=S(=O)(c1ccc(C(F)(F)F)cn1)N1CCN2C[C@H](Oc3cnc(C4CC4)cn3)C[C@H]2C1` [Example 67, (7R,8aS)-7-[(5-cyclopropylpyrazin-2-yl)oxy]-2-{[5-(trifluoromethyl)pyridin-2-yl]sulfonyl}octahydropyrrolo[1,2-a]pyrazine], inhibition in vivo at 10 mg/kg 5%. Against it:
- O=S(=O)(c1cccc(C(F)(F)F)c1)N1CCN2C[C@H](Oc3cnc(C4CC4)cn3)C[C@H]2C1 [Example 21, (7R,8aS)-7-[(5-cyclopropylpyrazin-2-yl)oxy]-2-{[3-(trifluoromethyl)phenyl]-sulfonyl}octahydropyrrolo[1,2-a]pyrazine] — higher, 43%
- O=S(=O)(c1ccc(C(F)(F)F)cc1)N1CCN2C[C@H](Oc3cnc(C4CC4)cn3)C[C@H]2C1 [Example 25, (7R,8aS)-7-[(5-cyclopropylpyrazin-2-yl)oxy]-2-{[4-(trifluoromethyl)-phenyl]sulfonyl}octahydropyrrolo[1,2-a]pyrazine] — higher, 42%
- O=S(=O)(c1cccc(C(F)(F)F)c1)N1CCN2C[C@H](Oc3ccc(C4CC4)nn3)C[C@H]2C1 [Example 44, (7R,8aS)-7-[(6-cyclopropylpyridazin-3-yl)oxy]-2-{[3-(trifluoromethyl)-phenyl]sulfonyl}octahydropyrrolo[1,2-a]pyrazine] — higher, 40%
- O=S(=O)(c1cccc(C(F)(F)F)c1)N1CCN2C[C@@H](Oc3cnc(C4CC4)cn3)C[C@H]2C1 [Example 49, (7S,8aS)-7-[(5-cyclopropylpyrazin-2-yl)oxy]-2-{[3-(trifluoromethyl)-phenyl]sulfonyl}octahydropyrrolo[1,2-a]pyrazine] — higher, 19%
- O=S(=O)(c1ccc(C(F)(F)F)cc1)N1CCN2C[C@@H](Oc3cnc(C4CC4)cn3)C[C@H]2C1 [Example 50, (7S,8aS)-7-[(5-cyclopropylpyrazin-2-yl)oxy]-2-{[4-(trifluoromethyl)phenyl]-sulfonyl}octahydropyrrolo[1,2-a]pyrazine] — higher, 25%
- O=S(=O)(c1cc(F)cc(C(F)(F)F)c1)N1CCN2C[C@H](Oc3cnc(C4CC4)cn3)C[C@H]2C1 [Example 51, (7R,8aS)-7-[(5-cyclopropylpyrazin-2-yl)oxy]-2-{[3-fluoro-5-(trifluoromethyl)phenyl]sulfonyl}octahydropyrrolo[1,2-a]pyrazine] — higher, 32%
- O=S(=O)(c1ccc(F)c(C(F)(F)F)c1)N1CCN2C[C@H](Oc3cnc(C4CC4)cn3)C[C@H]2C1 [Example 52, (7R,8aS)-7-[(5-cyclopropylpyrazin-2-yl)oxy]-2-{[4-fluoro-3-(trifluoromethyl)phenyl]sulfonyl}octahydropyrrolo[1,2-a]pyrazine] — higher, 38%
- O=S(=O)(c1ccc(C(F)(F)F)cc1)N1CCN2C[C@@H](Oc3cnc(C4CC4)cn3)C[C@@H]2C1 [Example 54, (7S,8aR)-7-[(5-cyclopropylpyrazin-2-yl)oxy]-2-{[4-(trifluoromethyl)phenyl]-sulfonyl}octahydropyrrolo[1,2-a]pyrazine] — higher, 34%
- O=S(=O)(c1ccc(F)cc1F)N1CCN2C[C@H](Oc3cnc(C4CC4)cn3)C[C@H]2C1 [Example 62, (7R,8aS)-7-[(5-cyclopropylpyrazin-2-yl)oxy]-2-[(2,4-difluorophenyl)-sulfonyl]octahydropyrrolo[1,2-a]pyrazine] — higher, 29%
- N#Cc1cc(C(F)(F)F)cc(S(=O)(=O)N2CCN3C[C@H](Oc4cnc(C5CC5)cn4)C[C@H]3C2)c1 [Example 64, 3-{[(7R,8aS)-7-[(5-cyclopropylpyrazin-2-yl)oxy]hexahydropyrrolo[1,2-a]-pyrazin-2(1H)-yl]sulfonyl}-5-(trifluoromethyl)benzonitrile] — higher, 37%
- N#Cc1ccc(O[C@@H]2C[C@H]3CN(S(=O)(=O)c4cccc(C(F)(F)F)c4)CCN3C2)cn1 [Example 86, 5-{[(7R,8aS)-2-{[3-(trifluoromethyl)phenyl]sulfonyl}octahydropyrrolo[1,2-a]pyrazin-7-yl]oxy}pyridine-2-carbonitrile] — lower, 0%
